Measured values: ChEMBL document CHEMBL3885881, “DrugMatrix”
Values joined by “and” are separate entries in the source; they are usually repeats but may differ in a detail not shown here. Equal entries are not always repeated.

Species: Rattus norvegicus
Assay: DrugMatrix - Regimen: Daily Repeat
Assay type: toxicity, organism-based, Sprague-Dawley
Design: regimen Daily Repeat, gender Male, age 6-8 weeks
Conditions: in vivo, vehicle 100 % SALINE; for ALANINE AMINOTRANSFERASE / ALBUMIN / ALKALINE PHOSPHATASE / ASPARTATE AMINOTRANSFERASE / BLOOD UREA NITROGEN / CARBON DIOXIDE / CHLORIDE / CHOLESTEROL / CREATINE PHOSPHOKINASE / CREATININE / GLUCOSE / LACTATE DEHYDROGENASE / LIPASE / PHOSPHORUS / POTASSIUM / SODIUM / TOTAL BILIRUBIN / TOTAL PROTEIN / URIC ACID: tissue Plasma
[1] = ip, 2 mg/kg, 120 h, tissue Blood, route intraperitoneal, dose level High, time 5 day
[2] = ip, 2 mg/kg, 120 h, route intraperitoneal, dose level High, time 5 day
[3] = ip, 2 mg/kg, […], tissue Blood, route intraperitoneal, dose level High, time 14 day
[4] = ip, 2 mg/kg, […], tissue Blood, route intraperitoneal, dose level High, time 28 day
[5] = ip, 2 mg/kg, […], route intraperitoneal, dose level High, time 14 day
[6] = ip, 2 mg/kg, […], route intraperitoneal, dose level High, time 28 day
[7] = po, 0 mg/kg, 72 h, tissue Blood, route oral GAVAGE, dose level Control, time 3 day

LEAD (II) ACETATE
BASOPHIL [1]: 0.92% and 0.35% | EOSINOPHIL [1]: 1.12% and 0.5% | ERYTHROCYTE COUNT [1]: 7.54 x10E6/uL and 7.26 x10E6/uL | HEMATOCRIT [1]: 45.88% and 47.9% | HEMOGLOBIN [1]: 15 G/DL and 15.17 G/DL | LEUKOCYTE COUNT [1]: 13.21 x10E3/uL and 9.67 x10E3/uL | LYMPHOCYTE [1]: 76.12% and 82.6% | MEAN CORPUSCULAR HEMOGLOBIN [1]: 20.9 pg | MEAN CORPUSCULAR HEMOGLOBIN CONCENTRATION [1]: 32.66 G/DL and 31.67 G/DL | MEAN CORPUSCULAR VOLUME [1]: 66 fL | MONOCYTE [1]: 1.94% and 1.57% | NEUTROPHIL [1]: 19.32% and 13.95% | PLATELET COUNT [1]: 1605.4 x10E3/uL and 1679.25 x10E3/uL | ALANINE AMINOTRANSFERASE [2]: 30.6 u/L and 16 u/L | ALBUMIN [2]: 3.32 G/DL and 4.1 G/DL | ALKALINE PHOSPHATASE [2]: 221 u/L and 290.75 u/L | ASPARTATE AMINOTRANSFERASE [2]: 83.2 u/L and 78.25 u/L | BLOOD UREA NITROGEN [2]: 13.8 mg/dL and 16.75 mg/dL | CARBON DIOXIDE [2]: 24 mmol/L | CHLORIDE [2]: 109.2 MEQ/L and 108.75 MEQ/L | CHOLESTEROL [2]: 57 mg/dL and 58.25 mg/dL | CREATINE PHOSPHOKINASE [2]: 338.6 u/L and 224.25 u/L | CREATININE [2]: 0.54 mg/dL and 0.4 mg/dL | GLUCOSE [2]: 117.4 mg/dL and 114.75 mg/dL | LACTATE DEHYDROGENASE [2]: 76.2 u/L | LIPASE [2]: 36 u/L and 14.25 u/L | PHOSPHORUS [2]: 10.02 mg/dL and 13.3 mg/dL | POTASSIUM [2]: 6.38 MEQ/L and 6.15 MEQ/L | SODIUM [2]: 151.2 MEQ/L and 152.25 MEQ/L | TOTAL BILIRUBIN [2]: 0.16 mg/dL and 0.3 mg/dL | TOTAL PROTEIN [2]: 5.8 G/DL and 6.3 G/DL | URIC ACID [2]: 1.08 mg/dL and 2.1 mg/dL | ABSOLUTE BASOPHIL [3]: 88 cells/µL | ABSOLUTE EOSINOPHIL [3]: 74 cells/µL | ABSOLUTE LYMPHOCYTE [3]: 8320 cells/µL | ABSOLUTE MONOCYTE [3]: 390 cells/µL | ABSOLUTE SEGMENTED NEUTROPHIL [3]: 3420 cells/µL | HEMOGLOBIN [3]: 14.2 G/DL | MEAN CORPUSCULAR VOLUME [3]: 59.1 fL | ABSOLUTE BASOPHIL [4]: 93 cells/µL | ABSOLUTE EOSINOPHIL [4]: 130 cells/µL | ABSOLUTE LYMPHOCYTE [4]: 9520 cells/µL | ABSOLUTE MONOCYTE [4]: 320 cells/µL | ABSOLUTE SEGMENTED NEUTROPHIL [4]: 2680 cells/µL | BASOPHIL [4]: 0.79% | EOSINOPHIL [4]: 1.01% | ERYTHROCYTE COUNT [4]: 8.38 x10E6/uL | HEMATOCRIT [4]: 46.51% | HEMOGLOBIN [4]: 14.88 G/DL | LEUKOCYTE COUNT [4]: 12.81 x10E3/uL | LYMPHOCYTE [4]: 74.22% | MEAN CORPUSCULAR HEMOGLOBIN [4]: 17.76 pg | MEAN CORPUSCULAR HEMOGLOBIN CONCENTRATION [4]: 32.02 G/DL | MEAN CORPUSCULAR VOLUME [4]: 55.46 fL | MONOCYTE [4]: 2.51% | NEUTROPHIL [4]: 20.93% | PLATELET COUNT [4]: 1429.8 x10E3/uL | CARBON DIOXIDE [5]: 26 mmol/L | TOTAL PROTEIN [5]: 5.9 G/DL | ALANINE AMINOTRANSFERASE [6]: 25.8 u/L | ALBUMIN [6]: 3.52 G/DL | ALKALINE PHOSPHATASE [6]: 146.4 u/L | ASPARTATE AMINOTRANSFERASE [6]: 80.7 u/L | BLOOD UREA NITROGEN [6]: 13.3 mg/dL | CHLORIDE [6]: 109.1 MEQ/L | CHOLESTEROL [6]: 54 mg/dL | CREATINE PHOSPHOKINASE [6]: 159.1 u/L | CREATININE [6]: 0.58 mg/dL | GLUCOSE [6]: 112.6 mg/dL | LACTATE DEHYDROGENASE [6]: 73.7 u/L | LIPASE [6]: 26.7 u/L | PHOSPHORUS [6]: 9.13 mg/dL | POTASSIUM [6]: 6.27 MEQ/L | SODIUM [6]: 150.5 MEQ/L | TOTAL BILIRUBIN [6]: 0.21 mg/dL | TOTAL PROTEIN [6]: 6.39 G/DL | URIC ACID [6]: 1.41 mg/dL | ABSOLUTE BASOPHIL [7]: 0 CELLS/uL | ABSOLUTE EOSINOPHIL [7]: 37 CELLS/uL | ABSOLUTE LYMPHOCYTE [7]: 12359.33 CELLS/uL | ABSOLUTE MONOCYTE [7]: 122.67 CELLS/uL | ABSOLUTE SEGMENTED NEUTROPHIL [7]: 847.67 CELLS/uL | BASOPHIL [7]: 0% | EOSINOPHIL [7]: 0.33% | ERYTHROCYTE COUNT [7]: 5.75 x10E6/uL | HEMATOCRIT [7]: 36.08% | LEUKOCYTE COUNT [7]: 13.37 x10E3/uL | MEAN CORPUSCULAR HEMOGLOBIN CONCENTRATION [7]: 38.98 G/DL | MONOCYTE [7]: 1% | NEUTROPHIL [7]: 6.17% | NUCLEATED RED BLOOD CELLS [7]: 0.17 /100WBC | PLATELET COUNT [7]: 1202.17 x10E3/uL
